Measured values reported in paper PMC1448180, “Small-molecule and mutational analysis of allosteric Eg5 inhibition by monastrol” (BMC Chemical Biology, 2006).
Substitutions are numbered along the chain they refer to. Where two headings read alike, the source gives them in different places.

Key:
Klp61F-364H = target: T1, Klp61F-364H (Drosophila melanogaster, UniProt P46863); experiment: ATP hydrolysis by Klp-61F motor domain (NADH-enzyme coupled assay); assay type: biochemical, D. melanogaster
T1 construct: His6 (C); made in house; host or cells: vector pRSETa
T1 sequence (P46863 1-364): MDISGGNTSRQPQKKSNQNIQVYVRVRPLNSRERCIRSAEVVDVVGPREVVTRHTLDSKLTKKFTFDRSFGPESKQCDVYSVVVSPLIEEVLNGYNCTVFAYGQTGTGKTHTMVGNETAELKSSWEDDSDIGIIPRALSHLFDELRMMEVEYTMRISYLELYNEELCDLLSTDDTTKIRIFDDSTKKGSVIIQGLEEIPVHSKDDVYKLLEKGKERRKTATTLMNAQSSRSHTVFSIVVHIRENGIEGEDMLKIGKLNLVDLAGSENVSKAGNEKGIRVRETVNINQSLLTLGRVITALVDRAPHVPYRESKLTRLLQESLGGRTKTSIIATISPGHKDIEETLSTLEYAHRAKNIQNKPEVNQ
Method: Each data point is the average of three independent experiments.
(§1) ATP hydrolysis by recombinantly expressed kinesin motor domains was measured using an NADH-enzyme coupled assay. ATP hydrolysis was measured in KC25 buffer supplemented with 5 μM taxol, 1 mM ATP-KOH (pH 7.0), the appropriate concentration of motor domain, and the appropriate concentrations of taxol-polymerized microtubules.

hEg5-367H = target: T2, hEg5-367H (Homo sapiens, UniProt P52732); experiment: ATP hydrolysis by recombinant human Eg5 motor domain (NADH-enzyme coupled assay); assay type: biochemical; conditions: for Activity as Eg5 inhibitor, in words: authors' assays
T2 construct: motor domain (amino acid residues 1–367) of human Eg5; His6 (C); made in house
T2 sequence (P52732 1-367): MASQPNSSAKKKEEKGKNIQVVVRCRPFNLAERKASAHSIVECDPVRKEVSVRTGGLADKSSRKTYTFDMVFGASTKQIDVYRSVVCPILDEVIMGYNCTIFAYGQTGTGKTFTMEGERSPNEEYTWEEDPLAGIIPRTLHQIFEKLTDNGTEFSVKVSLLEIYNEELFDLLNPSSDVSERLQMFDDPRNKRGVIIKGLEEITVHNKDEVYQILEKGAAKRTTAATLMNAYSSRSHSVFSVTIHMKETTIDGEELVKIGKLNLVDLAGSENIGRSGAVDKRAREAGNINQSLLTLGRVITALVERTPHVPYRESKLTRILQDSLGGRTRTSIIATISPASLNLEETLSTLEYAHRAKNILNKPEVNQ
Method: (§2) Figure 2 Structure-activity relationship of monastrol derivatives. (A) Scheme depicting the Biginelli condensation, a one-pot reaction for preparing monastrol derivatives. […] Each data point is the average of three independent experiments. […] Each cell-based assay was performed in duplicate.
We used a modified PCR mutagenesis protocol to introduce mutations into hEg5-367H, a plasmid encoding the C-terminally His6-tagged motor domain (amino acid residues 1–367) of human Eg5. The wild-type and mutant proteins were expressed and purified using Ni-NTA affinity chromatography and concentrated to between 3 and 10 mg/ml protein as described.
as §1

BS-C-1 cells = experiment: Monoaster formation in tissue culture cells (manual count of mitotic cells); assay type: cell-based, green monkey; conditions: Chlorocebus sabaeus, read-out: Cells: monoaster formation score (drug concentration with roughly equal monastral and bipolar spindles)
Method: as §2
Conditions for growing the following cell lines are as described: D. rerio AB9 (37), D. melanogaster KC167 [38], and BS-C-1 green monkey kidney cells. For immunofluorescence microscopy, cells were grown on 12 mm circular coverslips to 30 % confluence, treated medium supplemented with drug and 0.2% DMSO, or a DMSO alone, for 6 hours, fixed with formaldehyde, and stained for DNA and microtubules, as described. D. melanogaster KC167 cells were cultured in Schneider's Drosophila Medium (GIBCO) whereas D. rerio AB9 cells and BS-C-1 green monkey kidney cells were cultured at 37°C in Dulbecco's Minimal medium in the presence of 10 % heat inactivated fetal calf serum.

hEg5-367H (L214T) = target: T3, hEg5-367H (L214T) (Homo sapiens, UniProt P52732, L214T); experiment: ATP hydrolysis by Eg5 motor domain mutant L214T; assay type: biochemical; conditions: data not shown
T3 construct: motor domain (amino acid residues 1–367) of human Eg5; His6 (C); made in house
T3 sequence (P52732 1-367 L214T): T2 sequence (P52732 1-367) with L214T
From the text: Figure 4 Mutagenesis of the monastrol binding site in human Eg5. (A) Design of mutations in the human Eg5 motor domain. Amino acid side chains that are not conserved between Eg5 and conventional kinesin were targeted, either introducing chimeric or rationally designed mutations (asterix for targeted point mutants) to test the contribution of residues to the drug-sensitivity of Eg5. (B) Steady-state enzymatic parameters for engineered human Eg5 motor domain mutants. Steady-state ATP hydrolysis by Eg5 was measured using an NADH-enzyme coupled assay varying the concentration of ATP, microtubules, or monastrol to obtain the microtubule concentration for half-maximal stimulation (K0.5MT), the maximal rate of microtubule-stimulated ATP hydrolysis (kcat), and the concentration of monastrol that inhibits basal ATP hydrolysis by 50 % (IC50), as described.
We used a modified PCR mutagenesis protocol to introduce mutations into hEg5-367H, a plasmid encoding the C-terminally His6-tagged motor domain (amino acid residues 1–367) of human Eg5. […]
as §1

Eg5 = conditions: cited from earlier work
[1] = BSC-1, BS-C-1 cells, 6 hours treatment, duplicate
[2] = 500 nM hEg5-367H, KC25 buffer, 1 mM ATP-KOH (pH 7.0), 1 μM taxol-stabilized microtubules
[3] = 500 nM hEg5-367H, KC25 buffer, 1 mM ATP-KOH (pH 7.0), 1 μM taxol-stabilized microtubules, read-out: IC50 (μM), inhibition of ATP hydrolysis by Eg5 motor domain

Row | SMILES | IC50 (hEg5-367H) [µM] | EC50 (BS-C-1 cells; BSC-1, 6 h) [µM] | IC50 (μM), inhibition of ATP hydrolysis by Eg5 motor domain (hEg5-367H; [2]) | further results
1 | CCOC(=O)C1=C(C)NC(=S)N[C@H]1c1cccc(O)c1 [(S)-monastrol, reference compound] | 6.1 ± 0.7 |  |  | IC50 (Klp61F-364H): 230 ± 4 µM
2 | CCOC(=O)C1=C(C)N(C)C(=S)NC1c1cccc(O)c1 (centres unmarked) [Derivative 1, ethyl 6-methyl-4-(3-hydroxyphenyl)-2-thioxo-1-methyl-1,2,3,4-tetrahydropyrimidine-5-carboxylate] | 3.3 | < 50 |  | 
3 | CCOC(=O)C1=C(C)NC(=O)NC1c1cccc(O)c1 (centres unmarked) [Derivative 2, ethyl 6-methyl-4-(3-hydroxyphenyl)-2-oxo-1,2,3,4-tetrahydropyrimidine-5-carboxylate] |  |  | Not Inhib. | Drug sensitivity of L214T mutant, in words (hEg5-367H (L214T)): resistant; EC50 (BS-C-1 cells; [1]): > 200 µM; Activity as Eg5 inhibitor, in words (hEg5-367H): completely inactive
4 | CCOC(=O)C1=C(C)NC(=S)NC1c1ccccc1 (centres unmarked) [Derivative 4a, ethyl 6-methyl-4-phenyl-2-thioxo-1,2,3,4-tetrahydropyrimidine-5-carboxylate] |  |  |  | EC50 (BS-C-1 cells; [1]): > 200 µM; IC50 (hEg5-367H; [3]): > 200 µM
5 | CCOC(=O)C1=C(C)NC(=S)NC1c1ccc(O)cc1 (centres unmarked) [Derivative 4b] |  | > 200 | Not Inhib. | 
6 | CCOC(=O)C1=C(C)NC(=S)NC1c1cccc(F)c1 (centres unmarked) [Derivative 4c, ethyl 6-methyl-4-(3-fluorophenyl)-2-thioxo-1,2,3,4-tetrahydropyrimidine-5-carboxylate] |  | > 200 | Not Inhib. | 
7 | CCOC(=O)C1=C(C)NC(=S)NC1c1cccc(OC)c1 (centres unmarked) [Derivative 4d, ethyl 6-methyl-4-(3-methoxyphenyl)-2-thioxo-1,2,3,4-tetrahydropyrimidine-5-carboxylate] |  | > 200 | Not Inhib. | 
8 | CCOC(=O)C1=C(C)NC(=S)NC1c1cccc(Br)c1 (centres unmarked) [Derivative 4e, ethyl 6-methyl-4-(3-bromophenyl)-2-thioxo-1,2,3,4-tetrahydropyrimidine-5-carboxylate] |  |  |  | Activity as Eg5 inhibitor, in words (hEg5-367H): completely inactive
9 | CC(=O)C1=C(C)NC(=S)NC1c1cccc(O)c1 (centres unmarked) [Derivative 5a, methyl 6-methyl-4-(3-hydroxyphenyl)-2-thioxo-1,2,3,4-tetrahydropyrimidine-5-ketone] | 25 | 50 to 200 |  | 
10 | CC1=C(C(=O)OCC(C)C)C(c2cccc(O)c2)NC(=S)N1 (centres unmarked) [Derivative 5b, isobutyl 6-methyl-4-(3-hydroxyphenyl)-2-thioxo-1,2,3,4-tetrahydropyrimidine-5-carboxylate] |  |  |  | EC50 (BS-C-1 cells; [1]): < 50 µM; IC50 (hEg5-367H; [3]): 3.8 µM
11 | CC1=C(C(=O)OCc2ccccc2)C(c2cccc(O)c2)NC(=S)N1 (centres unmarked) [Derivative 5c, benzyl 6-methyl-4-(3-hydroxyphenyl)-2-thioxo-1,2,3,4-tetrahydropyrimidine-5-carboxylate] | 21 | 50 to 200 |  | 
12 | CCOC(=O)C1=C(C(C)C)NC(=S)NC1c1cccc(O)c1 (centres unmarked) [Derivative 6, ethyl 6-isopropyl-4-(3-hydroxyphenyl)-2-thioxo-1,2,3,4-tetrahydropyrimidine-5-carboxylate] |  | > 200 | Not Inhib. | 
13 | N[C@@H](CSC(c1ccccc1)(c1ccccc1)c1ccccc1)C(=O)O [S-trityl cysteine] |  |  |  | Potency relative to monastrol (Eg5): more potent than monastrol
